For orientation: IC50 means the concentration at which inhibition is half-maximal.

The nature of data set [1]: Cytotoxicity against human GES1 cells assessed as inhibition of cell proliferation incubated for 48 hrs by MTT assay. In kind it is toxicity, cell-based.
In data set [2] the target is Tubulin beta (Homo sapiens) (UniProt P68371+Q9H4B7+Q13509+P04350+Q3ZCM7+P07437+Q13885+Q9BVA1+Q9BUF5+A6NNZ2). Briefly: Competitive binding affinity to beta-tubulin colchicine binding site in human HGC-27 cells assessed as inhibition of EBI-beta-tubulin adduct band formation by measuring reduction in adduct band intensity preincubated for 2 hrs followed by EBI addition and measured after 2 hrs by Western blotting analysis. The settings on record: dose 0.1-1 µmol/L, time 4.0 hrs. In kind it is cell-based. (A western blot detects proteins with antibodies after separation by electrophoresis.)

Data set [3] relates to MGC-803. Briefly: Induction of apoptosis in human MGC-803 cells assessed as nuclei shrinkage at 0.25 to 2.0 nmol/L incubated for 48 hrs by DAPI staining based analysis. In kind it is functional, cell-based. The settings on record: dose 0.25-2 nmol/L.
The test system of data set [4] is MGC-803. Briefly: Induction of apoptosis in human MGC-803 cells assessed as increase in nuclei brightness at 0.25 to 2.0 nmol/L incubated for 48 hrs by DAPI staining based analysis. The settings on record: dose 0.25-2 nmol/L. In kind it is functional, cell-based.

Activity calls are given as the source filed them. The calls are words filed in the database; no cut-off is given here.

With `CN(c1ccc2c(ccn2C)c1)c1nc(N2CCCC2)nc2sccc12`, in data set [1], the IC50 at 48 h was 31.1 nM. Also, the Activity entry in data set [2] is “Dose-dependent-effect”. The result with MGC-803 [3] and in the data set on MGC-803 [4] was Active.

For the origin of these results see ChEMBL document CHEMBL6103573, “Discovery of novel thienopyridine indole derivatives as inhibitors of tubulin polymerization targeting the colchicine-binding site with potent anticancer activities” (Eur J Med Chem, 2025).
